# Like-named read-outs stand apart in the source and are kept apart here.
# Legend:
# [1] = target: S. aureus DNA gyrase (Staphylococcus aureus, UniProt P0A0K8+P20831); test: DNA gyrase supercoiling inhibition; format: biochemical
# [2] = tested on: CIMRSA 6; test: microdilution susceptibility test; format: cell-based, Staphylococcus aureus; conditions: N=3
# [3] = tested on: Klebsiella pneumoniae; conditions: cited from earlier work
# [4] = tested on: MRSA (ATCC 43300); test: microdilution susceptibility test; format: cell-based, Staphylococcus aureus; conditions: N=3
# [5] = tested on: Staphylococcus saprophyticus; conditions: cited from earlier work
# [6] = tested on: clinical isolates of MRSA; conditions: cited from earlier work
# [7] = tested on: Pseudomonas aeruginosa; conditions: cited from earlier work
# [8] = tested on: CIMRSA 7; test: microdilution susceptibility test; format: cell-based, Staphylococcus aureus; conditions: N=3
# [9] = tested on: CIMRSA 3; test: microdilution susceptibility test; format: cell-based, Staphylococcus aureus; conditions: N=3
# [10] = tested on: CIMRSA 5; test: microdilution susceptibility test; format: cell-based, Staphylococcus aureus; conditions: N=3
# [11] = tested on: CIMRSA 2; test: microdilution susceptibility test; format: cell-based, Staphylococcus aureus; conditions: N=3
# [12] = tested on: Vero cells; test: CTG Luminescent Cell Viability Assay; format: cell-based, monkey; conditions: N=3
# [13] = tested on: CIMRSA 4; test: microdilution susceptibility test; format: cell-based, Staphylococcus aureus; conditions: N=3
# [14] = tested on: E. coli (ATCC 25922); test: microdilution susceptibility test; format: cell-based, Escherichia coli; conditions: N=3
# [15] = tested on: MRSA (ATCC 43300); conditions: cited from earlier work
# [16] = tested on: Bacillus cereus; conditions: cited from earlier work
# [17] = tested on: CIMRSA 1; test: microdilution susceptibility test; format: cell-based, Staphylococcus aureus; conditions: N=3
# [18] = tested on: PBMC isolated from healthy volunteers; test: cytotoxicity in peripheral blood mononuclear cells; format: cell-based, human; conditions: N=3
# [19] = tested on: eight MRSA strains; test: antibacterial activity against eight MRSA strains; format: cell-based, Staphylococcus aureus; conditions: 6 compared with 2
# [20] = CTG Luminescent Cell Viability Assay; format: cell-based, monkey; conditions: monkey, Vero cells
# S. aureus DNA gyrase, sequence (P20831 whole entry): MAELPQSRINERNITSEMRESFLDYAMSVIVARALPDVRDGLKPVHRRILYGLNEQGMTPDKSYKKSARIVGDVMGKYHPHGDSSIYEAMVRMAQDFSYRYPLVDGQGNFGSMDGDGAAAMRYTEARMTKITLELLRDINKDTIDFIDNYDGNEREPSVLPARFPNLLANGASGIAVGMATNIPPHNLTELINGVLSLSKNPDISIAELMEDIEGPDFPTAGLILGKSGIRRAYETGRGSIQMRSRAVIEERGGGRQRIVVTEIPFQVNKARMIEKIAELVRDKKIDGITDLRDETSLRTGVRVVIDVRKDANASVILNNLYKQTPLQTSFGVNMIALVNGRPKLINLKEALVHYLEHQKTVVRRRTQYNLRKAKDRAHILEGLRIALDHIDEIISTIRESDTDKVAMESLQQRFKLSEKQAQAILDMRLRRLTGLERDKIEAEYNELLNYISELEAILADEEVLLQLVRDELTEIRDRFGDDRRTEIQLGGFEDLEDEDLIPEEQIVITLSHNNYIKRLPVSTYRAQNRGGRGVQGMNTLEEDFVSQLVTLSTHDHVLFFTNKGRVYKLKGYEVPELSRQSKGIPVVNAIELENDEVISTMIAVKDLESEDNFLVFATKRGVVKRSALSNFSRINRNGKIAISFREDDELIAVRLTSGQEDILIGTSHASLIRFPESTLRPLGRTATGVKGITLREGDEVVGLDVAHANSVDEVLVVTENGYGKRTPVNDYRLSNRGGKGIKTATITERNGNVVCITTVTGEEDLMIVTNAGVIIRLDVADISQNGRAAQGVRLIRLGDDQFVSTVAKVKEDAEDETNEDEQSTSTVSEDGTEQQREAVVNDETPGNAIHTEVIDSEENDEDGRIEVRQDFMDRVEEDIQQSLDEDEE
# S. aureus DNA gyrase, sequence (P0A0K8 whole entry): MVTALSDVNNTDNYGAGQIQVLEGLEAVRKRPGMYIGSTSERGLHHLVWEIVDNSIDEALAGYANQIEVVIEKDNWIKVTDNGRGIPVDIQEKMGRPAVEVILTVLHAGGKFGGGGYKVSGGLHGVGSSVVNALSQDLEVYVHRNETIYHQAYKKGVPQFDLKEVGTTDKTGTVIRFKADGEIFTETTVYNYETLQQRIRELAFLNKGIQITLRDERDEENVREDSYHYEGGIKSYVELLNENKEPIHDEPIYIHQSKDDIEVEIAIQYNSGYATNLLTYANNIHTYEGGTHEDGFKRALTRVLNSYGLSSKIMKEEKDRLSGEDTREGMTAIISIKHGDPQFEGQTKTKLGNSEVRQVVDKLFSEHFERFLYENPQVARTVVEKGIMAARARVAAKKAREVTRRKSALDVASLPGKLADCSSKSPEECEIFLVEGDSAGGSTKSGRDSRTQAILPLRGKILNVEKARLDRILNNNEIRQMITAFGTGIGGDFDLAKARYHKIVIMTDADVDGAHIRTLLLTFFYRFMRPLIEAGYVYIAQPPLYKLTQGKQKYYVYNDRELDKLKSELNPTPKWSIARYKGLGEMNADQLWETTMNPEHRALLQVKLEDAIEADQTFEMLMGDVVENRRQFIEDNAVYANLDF
compound,measurement,setting,value
"CCCCCCCCCCCCCCCC(=O)Oc1ccc(/C=C/C(=O)/C=C/c2ccc(OC(=O)CCCCCCCCCCCCCCC)c(OC)c2)cc1OC [C5-Curc-PA, C5-Curcumin-Palmitic Acid]",inhibition of S. aureus DNA gyrase (in words),"[1]; ethidium bromide stained gels, Fig. 2",not inhibitory
2-hexadecynoic acid [compound 4],fold more active against DNA gyrase than 6,[1]; 4 compared with 6,3.7 fold
same,IC50 ± SEM,[2],5.7 ± 0.8 µg/mL
same,MIC,[2],7.8 µg/mL
same,MIC,[3],7.8 µg/mL
same,IC50 ± SEM,[4],5.1 ± 0.1 µg/mL
same,MIC,[4],7.8 µg/mL
same,MIC,[5],15.6 µg/mL
same,MIC,[6],3.9 µg/mL
same,MIC,[7],125 µg/mL
same,IC50 ± SEM,[8],4.7 ± 0.3 µg/mL
same,MIC,[8],7.8 µg/mL
same,IC50 ± SEM,[9],6.3 ± 0.2 µg/mL
same,MIC,[9],15.6 µg/mL
same,IC50 ± SEM,[10],5.1 ± 0.2 µg/mL
same,MIC,[10],7.8 µg/mL
same,IC50 ± SEM,[11],5.0 ± 0.5 µg/mL
same,MIC,[11],7.8 µg/mL
same,Vero cells cytotoxicity IC50±SEM,[12],1.6 ± 0.4 µg/mL
same,IC50 ± SEM,[13],6.5 ± 0.1 µg/mL
same,MIC,[13],15.6 µg/mL
same,MIC,[14],">1,000 μg/mL"
same,MIC,[15],15.6 µg/mL
same,MIC,[16],31.3 µg/mL
same,IC50 ± SEM,[17],4.2 ± 0.1 µg/mL
same,MIC,[17],7.8 µg/mL
same,PBMC cytotoxicity IC50±SEM,[18],68.9 ± 0.7 µg/mL
"CCCCCCCCCCCCCC#CC(=O)Oc1ccc(/C=C/C(=O)/C=C/c2ccc(OC(=O)C#CCCCCCCCCCCCCC)c(OC)c2)cc1OC [compound 6, C5-Curcumin-2-Hexadecynoic Acid]",fold increase of antibacterial activity against MRSA strains relative to 2,[19],4-8 fold
same,IC50,[20],> 100 µg/mL

# Source: publication PMC4663078 (Bioorganic & medicinal chemistry letters, 2015)
